Results on 5 molecules are retold here after US20180044305A1, “3-SUBSTITUTED 1,3,4-OXADIAZOLE AND THIADIAZOLE COMPOUNDS AS IMMUNOMODULATORS” (AURIGENE DISCOVERY TECHNOLOGIES LIMITED, priority 2015, published 2018).

In the experiment the target is T1, Recombinant mouse PD-L1 (Mus musculus, UniProt Q9EP73).
T1 construct: Fc (Fc chimera); purchased R&D Systems 1019-B7-100
T1 sequence (Q9EP73 with tags, fused parts or gaps limits assumed): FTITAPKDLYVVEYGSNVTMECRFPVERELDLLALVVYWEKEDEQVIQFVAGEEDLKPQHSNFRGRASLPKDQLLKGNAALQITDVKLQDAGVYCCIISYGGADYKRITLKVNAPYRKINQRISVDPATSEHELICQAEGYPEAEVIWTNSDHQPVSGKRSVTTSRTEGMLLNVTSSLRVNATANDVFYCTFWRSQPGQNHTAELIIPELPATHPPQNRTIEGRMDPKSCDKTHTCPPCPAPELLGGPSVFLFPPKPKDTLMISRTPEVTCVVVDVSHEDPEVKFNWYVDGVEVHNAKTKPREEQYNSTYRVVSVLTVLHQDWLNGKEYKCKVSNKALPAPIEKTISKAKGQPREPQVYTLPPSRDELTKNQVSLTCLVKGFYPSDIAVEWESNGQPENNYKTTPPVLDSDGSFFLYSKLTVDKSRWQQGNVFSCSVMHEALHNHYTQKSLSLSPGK
Put plainly: Rescue of mouse splenocyte proliferation in the presence of recombinant PD-L1 (CFSE proliferation assay). In kind it is cell-based. Conditions: compound at 100 nM; CFSE-labelled mouse splenocytes + anti-CD3/CD28 + PD-L1, 72 h; normalised to stimulated splenocyte proliferation as 100%. On the procedure:
Example 3: Rescue of Mouse Splenocyte Proliferation in the Presence of Recombinant PD-L1
Recombinant mouse PD-L1 (rm-PDL-1, cat no: 1019-B7-100; R&D Systems) were used as the source of PD-L1.
Mouse splenocytes harvested from 6-8 weeks old C57 BL6 mice; RPMI 1640 (GIBCO, Cat #11875); DMEM with high glucose (GIBCO, Cat #D6429); Fetal Bovine Serum [Hyclone, Cat #SH30071.03]; Penicillin (10000 unit/mL)-Streptomycin(10,000 μg/mL) Liquid (GIBCO, Cat #15140-122); MEM Sodium Pyruvate solution 100 mM (100×), Liquid (GIBCO, Cat #11360); Nonessential amino acid (GIBCO, Cat #11140); L-Glutamine (GIBCO, Cat #25030); Anti-CD3 antibody (eBiosciences—16-0032); Anti-CD28 antibody (eBiosciences—16-0281); ACK lysis buffer (1 mL) (GIBCO, Cat #-A10492); Histopaque (density—1.083 gm/mL) (SIGMA 10831); Trypan blue solution (SIGMA-T8154); 2 mL Norm Ject Luer Lock syringe-(Sigma 2014-12); 40 µm nylon cell strainer (BD FALCON 35230); Hemacytometer (Bright line-SIGMA Z359629); FACS Buffer (PBS/0.1% BSA): Phosphate Buffered Saline (PBS) pH 7.2 (HiMedia TS1006) with 0.1% Bovine Serum Albumin (BSA) (SIGMA A7050) and sodium azide (SIGMA 08591); 5 mM stock solution of CFSE: CFSE stock solution was prepared by diluting lyophilized CFSE with […] of Dimethyl sulfoxide (DMSO C2H6SO, SIGMA-D-5879) and aliquoted in to tubes for further use. Working concentrations were titrated from […] to 1 μM. (eBioscience—650850-85); 0.05% Trypsin and 0.02% EDTA (SIGMA 59417C); 96-well format ELISA plates (Corning CLS3390); BD FACS caliber (E6016); Recombinant mouse B7-H1/PDL1 Fc Chimera, (rm-PD-L1 cat no: 1019-B7-100).
Splenocytes harvested in a 50 mL falcon tube by mashing mouse spleen in a 40 µm cell strainer were further treated with 1 mL ACK lysis buffer for 5 min at room temperature. After washing with 9 mL of RPMI complete media, cells were re-suspended in 3 mL of 1×PBS in a 15 mL tube. 3 mL of Histopaque was added carefully to the bottom of the tube without disturbing overlaying splenocyte suspension. After centrifuging at 800×g for 20 min at room temperature, the opaque layer of splenocytes was collected carefully without disturbing/mixing the layers. Splenocytes were washed twice with cold 1×PBS followed by total cell counting using Trypan Blue exclusion method and used further for cell based assays.
Splenocytes were cultured in RPMI complete media (RPMI+10% fetal bovine serum+1 mM sodium pyruvate+10,000 units/mL penicillin and […] streptomycin) and maintained in a CO2 incubator with 5% CO2 at 37° C.
CFSE is a dye that passively diffuses into cells and binds to intracellular proteins. 1×10^6 cells/mL of harvested splenocytes were treated with […] of CFSE in pre-warmed 1×PBS/0.1% BSA solution for 10 min at 37° C. Excess CFSE was quenched using 5 volumes of ice-cold culture media to the cells and incubated on ice for 5 min. CFSE labelled splenocytes were further given three washes with ice cold complete RPMI media. […] Cells were harvested and washed thrice with ice cold FACS buffer and % proliferation was analysed by flow cytometry with 488 nm excitation and 521 nm emission filters.
Percent splenocyte proliferation was analysed using cell quest FACS program and percent rescue of splenocyte proliferation by compound was estimated after deduction of % background proliferation value and normalising to % stimulated splenocyte proliferation (positive control) as 100%. […]
`CC(O)[C@H](NC(=O)N[C@H](c1nnc(-c2ccco2)o1)C(C)C)C(=O)O` (some centres unmarked) [Compound 7]: the “Percent rescue of splenocyte proliferation (@100 nM)” value (from here on “Percent rescue”) amounted to 28%. To `COc1ccccc1-c1nnc([C@H](CC(N)=O)NC(=O)N[C@@H](CCCCN)C(=O)O)o1` [Compound 11] belongs 60%.

Regarding `COc1ccccc1-c1nnc([C@H](CC(N)=O)NC(=O)N[C@@H](CCSC)C(=O)O)o1` [Compound 12], the “Percent rescue” value came to 15%.

In the case of `CC(O)[C@H](NC(=O)N[C@@H](CC(N)=O)c1nnc(-c2cnccn2)o1)C(=O)O` (some centres unmarked) [Compound 13], the “Percent rescue” value was determined as 63%.

Consider `COc1ccccc1-c1nnc([C@H](CC(N)=O)NC(=O)N[C@H](C(=O)O)C(C)O)o1` (some centres unmarked) [Compound 16], for which the “Percent rescue” value was found to be 7%.
